Data published in patent publication US8470820B2, “Nitrogen-containing heteroaryl derivatives” (Hoffman-La Roche Inc., priority 2010, dated 2013).

The compounds below were run against human PDE10A (Homo sapiens (Human), UniProt Q9Y233) (assay: human PDE10A full length Scintillation Proximity Assay (SPA)). Conditions: 50 nM cGMP and 50 nM [3H]-cGMP, 20 minutes at room temperature, read-out: PDE10A inhibition IC50.
Chain of human PDE10A (Q9Y233 other isoform, or with tags, fused parts or gaps): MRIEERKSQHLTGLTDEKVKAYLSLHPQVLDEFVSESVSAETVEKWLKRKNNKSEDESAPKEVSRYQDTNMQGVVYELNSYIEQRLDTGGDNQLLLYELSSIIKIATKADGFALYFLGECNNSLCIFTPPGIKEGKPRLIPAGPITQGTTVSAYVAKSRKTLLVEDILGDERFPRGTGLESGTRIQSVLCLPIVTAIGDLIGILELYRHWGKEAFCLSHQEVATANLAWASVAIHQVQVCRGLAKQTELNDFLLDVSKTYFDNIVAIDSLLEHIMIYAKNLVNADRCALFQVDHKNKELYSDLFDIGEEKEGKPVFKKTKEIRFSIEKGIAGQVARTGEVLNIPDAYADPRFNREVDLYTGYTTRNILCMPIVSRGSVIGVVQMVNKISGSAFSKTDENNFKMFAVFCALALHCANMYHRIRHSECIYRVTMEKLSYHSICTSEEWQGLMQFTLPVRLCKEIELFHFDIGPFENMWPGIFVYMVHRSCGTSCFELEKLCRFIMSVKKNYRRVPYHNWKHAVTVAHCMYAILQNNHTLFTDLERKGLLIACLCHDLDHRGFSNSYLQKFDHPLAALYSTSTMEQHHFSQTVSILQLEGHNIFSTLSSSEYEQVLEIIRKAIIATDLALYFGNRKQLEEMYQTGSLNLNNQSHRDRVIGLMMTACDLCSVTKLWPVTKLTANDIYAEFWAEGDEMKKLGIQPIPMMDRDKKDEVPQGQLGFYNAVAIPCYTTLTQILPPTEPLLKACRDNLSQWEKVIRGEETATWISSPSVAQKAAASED
Assay type: biochemical
Description: The following test was carried out in order to determine the activity of the compounds of the present invention. PDE10 activity of the compounds of the present invention was determined using a Scintillation Proximity Assay (SPA)-based method similar to the one previously described (Fawcett, L. et al., Proc Natl Acad Sci USA (2000) 97(7):3702-3707).
The human PDE10A full length assay was performed in 96-well micro titer plates. The reaction mixture of 50 μl contained 20 mM HEPES pH=7.5/10 mM MgCl2/0.05 mg/ml BSA (Sigma cat. # A-7906), 50 nM cGMP (Sigma, cat. # G6129) and 50 nM [^3H]-cGMP (GE Healthcare, cat. # TRK392 S.A. 13.2Ci/mmol), 3.75 ng/well PDE10A enzyme (Enzo Life Science, Lausen, Switzerland cat # SE-534) with or without a specific test compound. A range of concentrations of the potential inhibitor was used to generate data for calculating the concentration of inhibitor resulting in 50% of the effect (e.g. IC50, the concentration of the competitor inhibiting PDE10A activity by 50%). Non-specific activity was tested without the enzyme. The reaction was initiated by the addition of the substrate solution (cGMP and [^3H]-cGMP) and allowed to progress for 20 minutes at room temperature. The reaction was terminated by adding 25 μA of YSi-SPA scintillation beads (GE Healthcare, cat. # RPNQ0150) in 18 mM zinc sulphate solution (stop reagent). After 1 h under shaking, the plate was centrifuged one minute at 170 g to allow beads to settle. Afterwards, radioactive counts were measured on a Perkin Elmer TopCount Scintillation plate reader.
Work on `Cc1ccc(Nc2cncnc2)c(C(=O)Nc2ccn(-c3ccccc3)n2)n1` [Example 1, 6-Methyl-3-(pyrimidin-5-ylamino)-pyridine-2-carboxylic acid (1-phenyl-1H-pyrazol-3-yl)-amide] yielded an IC50 of 90 nM. Compound `Cc1ccc(Nc2cncnc2)c(C(=O)Nc2ccn(-c3ccccn3)n2)n1` [Example 4, 6-Methyl-3-(pyrimidin-5-ylamino)-pyridine-2-carboxylic acid (1-pyridin-2-yl-1H-pyrazol-3-yl)-amide] has an IC50 of 368 nM. `Cc1ccc(Nc2cncnc2)c(C(=O)Nc2ccn(-c3ccncc3)n2)n1` [Example 5, 6-Methyl-3-(pyrimidin-5-ylamino)-pyridine-2-carboxylic acid (1-pyridin-4-yl-1H-pyrazol-3-yl)-amide] showed an IC50 of 48 nM. `O=C(Nc1ccn(-c2ccc(F)cc2)n1)c1nc(C2CC2)ccc1Nc1cncnc1` [Example 6, 6-Cyclopropyl-3-(pyrimidin-5-ylamino)-pyridine-2-carboxylic acid [1-(4-fluoro-phenyl)-1H-pyrazol-3-yl]-amide] was tested, and the IC50 was 23 nM. Compound `O=C(Nc1ccn(-c2ccncc2)n1)c1nc(C2CC2)ccc1Nc1cncnc1` [Example 7, 6-Cyclopropyl-3-(pyrimidin-5-ylamino)-pyridine-2-carboxylic acid (1-pyridin-4-yl-1H-pyrazol-3-yl)-amide] has an IC50 of 10 nM. `Cn1nc(-c2ccccn2)cc1NC(=O)c1nc(C2CC2)ccc1Nc1cncnc1` [Example 8, 6-Cyclopropyl-3-(pyrimidin-5-ylamino)-pyridine-2-carboxylic acid (2-methyl-5-pyridin-2-yl-2H-pyrazol-3-yl)-amide] showed an IC50 of 5 nM. `O=C(Nc1cc(-c2ccccc2)nn1CCO)c1nc(C2CC2)ccc1Nc1cncnc1` [Example 9, 6-Cyclopropyl-3-(pyrimidin-5-ylamino)-pyridine-2-carboxylic acid [2-(2-hydroxy-ethyl)-5-phenyl-2H-pyrazol-3-yl]-amide] showed an IC50 of 122 nM. `O=C(Nc1cc(-c2ccccn2)nn1CCO)c1nc(C2CC2)ccc1Nc1cncnc1` [Example 10, 6-Cyclopropyl-3-(pyrimidin-5-ylamino)-pyridine-2-carboxylic acid [2-(2-hydroxy-ethyl)-5-pyridin-2-yl-2H-pyrazol-3-yl]-amide] gave an IC50 of 2 nM. `COCc1ccc(Nc2cncnc2)c(C(=O)Nc2cc(-c3ccccn3)nn2CCO)n1` [Example 11, 6-Methoxymethyl-3-(pyrimidin-5-ylamino)-pyridine-2-carboxylic acid [2-(2-hydroxy-ethyl)-5-pyridin-2-yl-2H-pyrazol-3-yl]-amide] gave an IC50 of 5 nM. Compound `CN(C)CCn1nc(-c2ccccn2)cc1NC(=O)c1nc(C2CC2)ccc1Nc1cncnc1` [Example 12, 6-Cyclopropyl-3-(pyrimidin-5-ylamino)-pyridine-2-carboxylic acid [2-(2-dimethylamino-ethyl)-5-pyridin-2-yl-2H-pyrazol-3-yl]-amide] has an IC50 of 1 nM. `COCc1ncc(Nc2cncnc2)c(C(=O)Nc2cc(-c3ccccn3)nn2C)n1` [Example 13, 2-Methoxymethyl-5-(pyrimidin-5-ylamino)-pyrimidine-4-carboxylic acid (2-methyl-5-pyridin-2-yl-2H-pyrazol-3-yl)-amide] was tested, and the IC50 was 256 nM. For `O=C(Nc1cc(-c2ccccn2)nn1C1CCCCC1)c1nc(C2CC2)ccc1Nc1cncnc1` [Example 14, 6-Cyclopropyl-3-(pyrimidin-5-ylamino)-pyridine-2-carboxylic acid (2-cyclohexyl-5-pyridin-2-yl-2H-pyrazol-3-yl)-amide], the IC50 was 1 nM. `CCOC(=O)Cn1nc(-c2ccccn2)cc1NC(=O)c1nc(C2CC2)ccc1Nc1cncnc1` [Example 15, (5-{[6-Cyclopropyl-3-(pyrimidin-5-ylamino)-pyridine-2-carbonyl]-amino}-3-pyridin-2-yl-pyrazol-1-yl)-acetic acid ethyl ester] gave an IC50 of 4 nM. Work on `O=C(Nc1cc(-c2ccccn2)nn1CCN1CCOCC1)c1nc(C2CC2)ccc1Nc1cncnc1` [Example 16, 6-Cyclopropyl-3-(pyrimidin-5-ylamino)-pyridine-2-carboxylic acid [2-(2-morpholin-4-yl-ethyl)-5-pyridin-2-yl-2H-pyrazol-3-yl]-amide] yielded an IC50 of 2 nM. `O=C(Nc1cc(-c2ccccn2)nn1CCc1ccccc1)c1nc(C2CC2)ccc1Nc1cncnc1` [Example 17, 6-Cyclopropyl-3-(pyrimidin-5-ylamino)-pyridine-2-carboxylic acid (2-phenethyl-5-pyridin-2-yl-2H-pyrazol-3-yl)-amide] was tested, and the IC50 was 5 nM. Compound `CC(C)(C)n1nc(-c2ccccn2)cc1NC(=O)c1nc(C2CC2)ccc1Nc1cncnc1` [Example 18, 6-Cyclopropyl-3-(pyrimidin-5-ylamino)-pyridine-2-carboxylic acid (2-tert-butyl-5-pyridin-2-yl-2H-pyrazol-3-yl)-amide] has an IC50 of 13 nM. Work on `CCc1ccc(Nc2cncnc2)c(C(=O)Nc2cc(-c3ccccn3)nn2C)n1` [Example 19, 6-Ethyl-3-(pyrimidin-5-ylamino)-pyridine-2-carboxylic acid (2-methyl-5-pyridin-2-yl-2H-pyrazol-3-yl)-amide] yielded an IC50 of 2 nM. For `O=C(Nc1cc(-c2ccccn2)nn1C1CCOCC1)c1nc(C2CC2)ccc1Nc1cncnc1` [Example 20, 6-Cyclopropyl-3-(pyrimidin-5-ylamino)-pyridine-2-carboxylic acid [5-pyridin-2-yl-2-(tetrahydro-pyran-4-yl)-2H-pyrazol-3-yl]-amide], the IC50 was 1 nM. `Cn1nc(-c2ccccn2)cc1NC(=O)c1nc(C2CC2)cnc1Nc1cncnc1` [Example 21, 6-Cyclopropyl-3-(pyrimidin-5-ylamino)-pyrazine-2-carboxylic acid (2-methyl-5-pyridin-2-yl-2H-pyrazol-3-yl)-amide] was tested, and the IC50 was 4 nM. In the case of `O=C(Nc1cc(-c2ccccn2)nn1CC(F)(F)F)c1nc(C2CC2)ccc1Nc1cncnc1` [Example 22, 6-Cyclopropyl-3-(pyrimidin-5-ylamino)-pyridine-2-carboxylic acid [5-pyridin-2-yl-2-(2,2,2-trifluoro-ethyl)-2H-pyrazol-3-yl]-amide], the IC50 is reported as 2 nM. For `CCCn1nc(-c2ccccn2)cc1NC(=O)c1nc(C2CC2)ccc1Nc1cncnc1` [Example 23, 6-Cyclopropyl-3-(pyrimidin-5-ylamino)-pyridine-2-carboxylic acid (2-propyl-5-pyridin-2-yl-2H-pyrazol-3-yl)-amide], the IC50 was 2 nM. In the case of `O=C(Nc1cc(-c2cccc(Cl)n2)nn1CCO)c1nc(C2CC2)ccc1Nc1cncnc1` [Example 24, 6-Cyclopropyl-3-(pyrimidin-5-ylamino)-pyridine-2-carboxylic acid [5-(6-chloro-pyridin-2-yl)-2-(2-hydroxy-ethyl)-2H-pyrazol-3-yl]-amide], the IC50 is reported as 1 nM. With `O=C(Nc1cc(-c2ccc3ccccc3n2)nn1CCO)c1nc(C2CC2)ccc1Nc1cncnc1` [Example 25, 6-Cyclopropyl-3-(pyrimidin-5-ylamino)-pyridine-2-carboxylic acid [2-(2-hydroxy-ethyl)-5-quinolin-2-yl-2H-pyrazol-3-yl]-amide] the IC50 was < 1 nM. With `O=C(Nc1cc(-c2ccc(Cl)cn2)nn1CCO)c1nc(C2CC2)ccc1Nc1cncnc1` [Example 26, 6-Cyclopropyl-3-(pyrimidin-5-ylamino)-pyridine-2-carboxylic acid [5-(5-chloro-pyridin-2-yl)-2-(2-hydroxy-ethyl)-2H-pyrazol-3-yl]-amide] the IC50 was 2 nM. `CC(C)n1nc(-c2ccccn2)cc1NC(=O)c1nc(C2CC2)ccc1Nc1cncnc1` [Example 27, 6-Cyclopropyl-3-(pyrimidin-5-ylamino)-pyridine-2-carboxylic acid (2-isopropyl-5-pyridin-2-yl-2H-pyrazol-3-yl)-amide] was tested, and the IC50 was 3 nM. With `CC(C)Cn1nc(-c2ccccn2)cc1NC(=O)c1nc(C2CC2)ccc1Nc1cncnc1` [Example 28, 6-Cyclopropyl-3-(pyrimidin-5-ylamino)-pyridine-2-carboxylic acid (2-isobutyl-5-pyridin-2-yl-2H-pyrazol-3-yl)-amide] the IC50 was 1 nM. Work on `O=C(Nc1cc(-c2ccccn2)nn1Cc1ccccc1)c1nc(C2CC2)ccc1Nc1cncnc1` [Example 29, 6-Cyclopropyl-3-(pyrimidin-5-ylamino)-pyridine-2-carboxylic acid (2-benzyl-5-pyridin-2-yl-2H-pyrazol-3-yl)-amide] yielded an IC50 of 2 nM. Work on `CCn1nc(-c2ccccn2)cc1NC(=O)c1nc(C2CC2)ccc1Nc1cncnc1` [Example 30, 6-Cyclopropyl-3-(pyrimidin-5-ylamino)-pyridine-2-carboxylic acid (2-ethyl-5-pyridin-2-yl-2H-pyrazol-3-yl)-amide] yielded an IC50 of 5 nM. Work on `O=C(Nc1cc(-c2ccccn2)nn1CC1CCCC1)c1nc(C2CC2)ccc1Nc1cncnc1` [Example 31, 6-Cyclopropyl-3-(pyrimidin-5-ylamino)-pyridine-2-carboxylic acid (2-cyclopentylmethyl-5-pyridin-2-yl-2H-pyrazol-3-yl)-amide] yielded an IC50 of 1 nM. With `O=C(Nc1cc(-c2ccccn2)nn1CC1CCCCC1)c1nc(C2CC2)ccc1Nc1cncnc1` [Example 32, 6-Cyclopropyl-3-(pyrimidin-5-ylamino)-pyridine-2-carboxylic acid (2-cyclohexylmethyl-5-pyridin-2-yl-2H-pyrazol-3-yl)-amide] the IC50 was 1 nM.
